Like-named read-outs stand apart in the source and are kept apart here. Marks after values point to notes of the source that are not given here.
Tests used:
[1] = cited from earlier work
HEp2 cells [2] = assay: Phototoxicity (1.5 J/cm^2), Cell Titer Blue; type: cell-based; conditions: Homo sapiens, HEp-2, light or radiation study, light dose 1.5 J/cm^2
Description: (§1) Human carcinoma HEp2 cells were obtained from ATCC and maintained in a 75 cm^2 flask (Chemglass) with 1× MEM (Eagle’s minimal essential medium) containing 10% FBS (fetal bovine serum) and 1% antibiotic (penicillin–streptomycin) in a humidified, 5% CO2 incubator at 37 °C. Stock solutions with a concentration of 32 mM in DMSO were prepared for each BODIPY. The stock solution was diluted to the final working concentrations with culture medium. The HEp2 cells were plated at 7500–10,000 cells per well in a Costar 96-well plate and allowed to grow for 24 h. The BODIPY stock solution was diluted to a 200 μM working solution and two-fold serial dilutions were prepared with final concentrations of 200, 100, 50, 25, 12.5, 6.25, and 0 μM. Each BODIPY was incubated for 24 h at 37 °C under 5% CO2. For the dark cytotoxicity experiments, after incubation, excess BODIPY was removed by washing the cells three times with 1× PBS (phosphate-buffered saline) and replacing with media containing 20% Cell Titer Blue (Promega, Madison, WI, USA). The cells were then incubated for additional 24 h at 37 °C under 5% CO2 and the cell toxicity was determined by fluorescence intensity at ex 570/em 615 nm using a FluoStar Optima microplate reader (BMG Labtech, Cary, NC, USA).
For the phototoxicity experiments, after incubation the cells were exposed to a light dose of ~1.5 J/cm^2 generated using a 600 W Quartz Tungsten Halogen lamp (Newport Corporation, Irvine, CA, USA). The cells were exposed for 20 min while the 96-well plate rested on an EchoTherm chilling plate (Torrey Pines Scientific, Carlsbad, CA, USA) set to 5 °C. Following light exposure, the loading media was removed and media containing 20% Cell Titer Blue was added. After incubation for 24 h at 37 °C under 5% CO2, the cell viability was determined as described above.

[3] = UV-vis absorption and emission spectroscopy, relative fluorescence quantum yields; type: physicochemical; conditions: for λabs / λem: room temperature; for Фf (relative fluorescence quantum yield): standard rhodamine-6G (Ф = 0.86) in methanol, λexc = 473 nm; for Φf (relative fluorescence quantum yield): standard Ru(bpy)Cl2.6H2O (Φf = 0.028) in H2O, λexc = 436 nm
Description: UV−vis absorption spectra were collected on a Varian Cary 50 Bio spectrophotometer. Emission spectra were obtained on a PerkinElmer LS55 spectrophotometer, at room temperature. Spectrophotometric grade solvents and quartz cuvettes (1 cm path length) were used. Relative fluorescence quantum yields (Φf) were calculated using rhodamine 6G (Φf = 0.86 in methanol) as reference for the neutral BODIPYs and Ru(bpy)Cl2.6H2O (Φf = 0.028 in water) as the standard for the cationic BODIPYs using the following equation: Φx = Φst × Gradx/Gradst × (ηx/ηst)^2, where the ΦX and ΦST are the quantum yields of the sample and standard, GradX and GradST are the gradients from the plot of integrated fluorescence intensity vs. absorbance, and η represents the refractive index of the solvent (x is for the sample and st for the standard).

HEp2 cells [4] = assay: Dark cytotoxicity, Cell Titer Blue; type: cell-based; conditions: Homo sapiens, HEp-2, 24 h incubation, read-out: Dark Toxicity (IC50)
Description: as §1

Cyclic voltammetry = type: physicochemical
Description: Cyclic voltammograms were collected on a Biologic SP-300 potentiostat using a three-electrode setup with a platinum working electrode (2 mm diameter, CH Instruments), platinum counter electrode (2 mm diameter, CH Instruments), and a silver wire pseudo reference-electrode stored in 0.25 M NBu4PF6 in anhydrous acetonitrile and separated from the electrochemical cell by a glass frit. The electrochemical cell was composed of a borosilicate glass scintillation vial with a custom-machined cap. Working electrodes were polished and then pre-treated by cycling between upper and lower boundaries of the electrochemical window for the experiment in a solution containing only the electrolyte. Measurements were taken in a solution of 0.25 M recrystallized NBu4PF6 in dried and degassed anhydrous acetonitrile. BODIPYs were added to 5 mL of electrolyte solution to give a concentration of 1 mM. Each solution also contained 1 mM ferrocene as an internal reference. Solutions were sparged with N2 before each measurement.

[5] = vs. Fc^+/Fc, 100 mV/s, acetonitrile, 0.25 M NBu4PF6

Row | Stokes Shift ([3]; CH3CN) | ε (molar extinction coefficient) ([3]; CH3CN) | λabs ([3]; CH3CN) | λem ([3]; CH3CN) | Stokes Shift ([3]; CH3OH) | labs ([3]; CH3OH) | lem ([3]; CH3OH) | ε (molar extinction coefficient) ([3]; CH3OH) | Фf (relative fluorescence quantum yield) ([3]; CH3OH) | SMILES | IC50 (HEp2 cells [2]) | IC50 (HEp2 cells [4]) | further results
1 |  |  |  |  |  |  |  |  |  | O.O.O.O.O.O.[Cl-].[Cl-].[Ru+2].c1ccc(-c2ccccn2)nc1.c1ccc(-c2ccccn2)nc1.c1ccc(-c2ccccn2)nc1 [Ru(bpy)Cl2.6H2O, reference compound] |  |  | Φf of the reference standard ([1]; in water): 0.028
2 | 12 nm | 87,500 M^−1 cm ^−1 | 502 nm | 514 nm | 10 nm | 504 nm | 514 nm | 119800 M-1 cm -1 | 0.13 | CC1=CC(C)=[N+]2C1=C(c1ccccn1)c1c(C)cc(C)n1[B-]2(F)F [2Py] | > 100 µM | > 200 µM | 
3 | 20 nm | 43,160 M^−1 cm ^−1 | 540 nm | 560 nm |  |  |  |  |  | CC1=C(Cl)C(C)=[N+]2C1=C(c1ccc[n+](C)c1)c1c(C)c(Cl)c(C)n1[B-]2(F)F [3catPyCl2, 2,6-Dichlo-8-(N-methyl-3-pyridyl)-1,3,5,7-tetramethyl-BODIPY] | > 100 µM | 120 µM | first reduction wave shift positive compared with the unchlorinated BODIPY (Cyclic voltammetry): 240 mV; second reduction wave shift positive compared with the unchlorinated BODIPY (Cyclic voltammetry): 120 mV; anodic peak shift positive compared with the corresponding unchlorinated BODIPY (Cyclic voltammetry; 100 mV/s): 160 mV; E1/2ox (oxidation peak potential only, irreversible wave) (Cyclic voltammetry; [5]): +1.10 ^c V; E1/2red, first one-electron reduction (Cyclic voltammetry; [5]): −1.02 V; E1/2red, second one-electron reduction (Cyclic voltammetry; [5]): −1.42 V; Φf (relative fluorescence quantum yield) ([3]; CH3CN): 0.23 ^b; Stokes Shift ([3]; H2O): 24 nm; ε (molar extinction coefficient) ([3]; H2O): 35,180 M^−1 cm ^−1; λabs ([3]; H2O): 540 nm; λem ([3]; H2O): 564 nm; Φf (relative fluorescence quantum yield) ([3]; H2O): 0.47; Φf (relative fluorescence quantum yield) ([3]; H2O, listed as 3catPyCl2 (I^−)): 0.47 ^b; fluorescence enhancement relative to the non-chlorinated pyridinium BODIPY ([3]; acetonitrile): 38 fold; fluorescence enhancement relative to the non-chlorinated pyridinium BODIPY ([3]; water): 100 fold
4 | 15 nm | 64,280 M^−1 cm ^−1 | 530 nm | 545 nm | 17 nm | 531 nm | 548 nm | 69940 M-1 cm -1 | 0.23 | CC1=C(Cl)C(C)=[N+]2C1=C(c1ccccn1)c1c(C)c(Cl)c(C)n1[B-]2(F)F [2PyCl2, 2,6-Dichloro-8-(2-pyridyl)-1,3,5,7-tetramethyl-BODIPY] | > 100 µM | > 200 µM | 
5 | 17 nm | 19,420 M^−1 cm ^−1 | 530 nm | 547 nm |  |  |  |  |  | CC1=C(Cl)C(C)=[N+]2C1=C(c1cccc[n+]1C)c1c(C)c(Cl)c(C)n1[B-]2(F)F [2catPyCl2, 2,6-Dichloro-8-(N-methyl-2-pyridyl)-1,3,5,7-tetramethyl-BODIPY] | 80 µM | 80 µM | first reduction wave shift positive compared with the unchlorinated BODIPY (Cyclic voltammetry): 220 mV; second reduction wave shift positive compared with the unchlorinated BODIPY (Cyclic voltammetry): 130 mV; anodic peak shift positive compared with the corresponding unchlorinated BODIPY (Cyclic voltammetry; 100 mV/s): 70 mV; E1/2red, first one-electron reduction (Cyclic voltammetry; [5]): −0.87 V; E1/2red, second one-electron reduction (Cyclic voltammetry; [5]): −1.16 V; E1/2ox (Cyclic voltammetry; vs. Fc^+/Fc, value at 10 V/s, acetonitrile, 0.25 M NBu4PF6): +1.10 ^b V; Φf (relative fluorescence quantum yield) ([3]; CH3CN): 0.17 ^b; Stokes Shift ([3]; H2O): 22 nm; ε (molar extinction coefficient) ([3]; H2O): 21,000 M^−1 cm ^−1; λabs ([3]; H2O): 555 nm; λem ([3]; H2O): 577 nm; Φf (relative fluorescence quantum yield) ([3]; H2O): 0.24; Φf (relative fluorescence quantum yield) ([3]; H2O, listed as 2catPyCl2 (I^−)): 0.24 ^b; fluorescence enhancement relative to the non-chlorinated pyridinium BODIPY ([3]; water): over 200 fold
6 |  |  |  |  |  |  |  |  |  | CC1=C(Cl)C(C)=[N+]2C1=C(c1cc[n+](C)cc1)c1c(C)c(Cl)c(C)n1[B-]2(F)F [4catPyCl2] |  |  | Stokes Shift ([1]; CH3CN): 62 nm; Φf (fluorescence quantum yield) ([1]; CH3CN): 0.048; ε (molar extinction coefficient) ([1]; CH3CN): 23,400 M^−1 cm ^−1; λabs ([1]; CH3CN): 538 nm; λem ([1]; CH3CN): 600 nm; Stokes Shift ([1]; H2O): 65 nm; Φf (fluorescence quantum yield) ([1]; H2O): 0.038; ε (molar extinction coefficient) ([1]; H2O): 11,640 M^−1 cm ^−1; λabs ([1]; H2O): 540 nm; λem ([1]; H2O): 605 nm; two-electron reduction shift positive compared with 4catPy (Cyclic voltammetry): 180 mV; anodic peak shift positive compared with the corresponding unchlorinated BODIPY (Cyclic voltammetry; 100 mV/s): 180 mV; E1/2red, two-electron reduction to doubly reduced state (Cyclic voltammetry; [5]): −0.89 ^e V; E1/2ox (Cyclic voltammetry; vs. Fc^+/Fc, value at 1 V/s, acetonitrile, 0.25 M NBu4PF6): +1.03 ^d V; fluorescence enhancement relative to the non-chlorinated pyridinium BODIPY ([3]; water): 10 fold
7 |  |  |  |  |  |  |  |  |  | CC1=C(Cl)C(C)=[N+]2C1=C(c1ccncc1)c1c(C)c(Cl)c(C)n1[B-]2(F)F [4PyCl2] |  |  | Stokes Shift ([1]; CH3CN): 18 nm; Φf (fluorescence quantum yield) ([1]; CH3CN): 0.58; ε (molar extinction coefficient) ([1]; CH3CN): 50,800 M^−1 cm ^−1; λabs ([1]; CH3CN): 528 nm; λem ([1]; CH3CN): 546 nm
8 |  |  |  |  |  |  |  |  |  | CC/N=c1\cc2oc3cc(NCC)c(C)cc3c(-c3ccccc3C(=O)OCC)c-2cc1C [rhodamine 6G, reference compound] |  |  | Φf of the reference standard ([1]; in methanol): 0.86
9 | 12 nm | 92,900 M^−1 cm ^−1 | 502 nm | 514 nm | 12 nm | 503 nm | 515 nm | 98140 M-1 cm -1 | 0.34 | CC1=CC(C)=[N+]2C1=C(c1cccnc1)c1c(C)cc(C)n1[B-]2(F)F [3Py] | > 100 µM | > 200 µM | 
10 |  |  |  |  |  |  |  |  |  | CC1=CC(C)=[N+]2C1=C(c1ccncc1)c1c(C)cc(C)n1[B-]2(F)F [4Py] | > 100 µM | > 200 µM | Stokes Shift ([1]; CH3CN): 14 nm; Φf (fluorescence quantum yield) ([1]; CH3CN): 0.31; ε (molar extinction coefficient) ([1]; CH3CN): 72,100 M^−1 cm ^−1; λabs ([1]; CH3CN): 501 nm; λem ([1]; CH3CN): 515 nm
11 | 15 nm | 57,540 M^−1 cm ^−1 | 527 nm | 542 nm | 16 nm | 530 nm | 546 nm | 66880 M-1 cm -1 | 0.57 | CC1=C(Cl)C(C)=[N+]2C1=C(c1cccnc1)c1c(C)c(Cl)c(C)n1[B-]2(F)F [3PyCl2, 2,6-Dichloro-8-(3-pyridyl)-1,3,5,7-tetramethyl-BODIPY] | > 100 µM | 200 µM | 
